# In ChEMBL document CHEMBL1201862, “PubChem BioAssay data set” (2004):
#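 In this assay, cells in 96-well plates receive the compound at five concentrations for 48 hours. Endpoints are linearly interpolated between the surrounding concentrations. GI50 is the concentration that inhibits growth by half.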 Calls of active or inactive are those of the source. Cut-off read from the data, not from the text of the source: active = GI50 up to about 1.1 µM and inactive = higher.
# How the values were obtained:
# Test in all cases: inhibition of tumour cell growth, NCI panel, 48 h
# [1] = system: HCT-15
# [2] = system: RXF 393
# [3] = system: MDA-N
# [4] = system: K562
# [5] = system: U-251
# [6] = system: KM12
# [7] = system: OVCAR-4
# [8] = system: SK-MEL-2
# [9] = system: MDA-MB-435
# [10] = system: SK-MEL-28
# [11] = system: OVCAR-3
# [12] = system: CCRF-CEM
# [13] = system: ACHN
# [14] = system: RPMI-8226
# [15] = system: NCI-H460
# [16] = system: HL-60
# [17] = system: SW-620
# [18] = system: OVCAR-5
# [19] = system: CAKI-1
# [20] = system: HT-29
# [21] = system: Malme-3M
# [22] = system: M14
# [23] = system: NCI/ADR-RES
# [24] = system: OVCAR-8
# [25] = system: MCF7
# [26] = system: SR
# [27] = system: MOLT-4
# [28] = system: HOP-62
# [29] = system: UACC-257
# [30] = system: NCI-H23
# [31] = system: T47D
# [32] = system: UO-31
# [33] = system: SN12C
# [34] = system: SNB-19
# [35] = system: DU-145
# [36] = system: SF-268
# [37] = system: LOX IMVI
# [38] = system: BT-549
# [39] = system: HCT-116
# [40] = system: UACC-62
# [41] = system: SNB-75
# [42] = system: TK-10
# [43] = system: NCI-H226
# [44] = system: HCC 2998
# [45] = system: SF-295
# [46] = system: A549
# [47] = system: EKVX
# [48] = system: HOP-92
# [49] = system: SK-OV-3
# [50] = system: IGROV-1
# [51] = system: Hs-578T
# [52] = system: MDA-MB-231
# [53] = system: COLO 205
# [54] = system: SK-MEL-5
# [55] = system: PC-3
# [56] = system: SF-539
# [57] = system: 786-0
# [58] = system: NCI-H522
compound,measurement,setting,value
CCOP(=O)(OCC)C(C)(C)OC(=O)NC#N,GI50,[1],> 100 µM
same,GI50,[2],> 100 µM (inactive)
same,GI50,[3],> 100 µM (inactive)
same,GI50,[4],> 100 µM (inactive)
same,GI50,[5],> 100 µM (inactive)
same,GI50,[6],> 100 µM (inactive)
same,GI50,[7],> 100 µM (inactive)
same,GI50,[8],> 100 µM (inactive)
same,GI50,[9],> 100 µM (inactive)
same,GI50,[10],> 100 µM (inactive)
same,GI50,[11],> 100 µM (inactive)
same,GI50,[12],> 100 µM (inactive)
same,GI50,[13],> 100 µM (inactive)
same,GI50,[14],> 100 µM (inactive)
same,GI50,[15],> 100 µM (inactive)
same,GI50,[16],> 100 µM (inactive)
same,GI50,[17],> 100 µM (inactive)
same,GI50,[18],> 100 µM (inactive)
same,GI50,[19],> 100 µM (inactive)
same,GI50,[20],> 100 µM (inactive)
same,GI50,[21],> 100 µM (inactive)
same,GI50,[22],> 100 µM (inactive)
same,GI50,[23],> 100 µM (inactive)
same,GI50,[24],> 100 µM (inactive)
same,GI50,[25],> 100 µM (inactive)
same,GI50,[26],> 100 µM (inactive)
same,GI50,[27],> 100 µM (inactive)
same,GI50,[28],> 100 µM (inactive)
same,GI50,[29],> 100 µM (inactive)
same,GI50,[30],> 100 µM (inactive)
same,GI50,[31],> 100 µM (inactive)
same,GI50,[32],> 100 µM (inactive)
same,GI50,[33],> 100 µM (inactive)
same,GI50,[34],> 100 µM (inactive)
same,GI50,[35],> 100 µM (inactive)
same,GI50,[36],> 100 µM (inactive)
same,GI50,[37],> 100 µM (inactive)
same,GI50,[38],79.6 µM (inactive)
same,GI50,[39],> 100 µM (inactive)
same,GI50,[40],> 100 µM (inactive)
same,GI50,[41],> 100 µM (inactive)
same,GI50,[42],> 100 µM (inactive)
same,GI50,[43],> 100 µM (inactive)
same,GI50,[44],> 100 µM (inactive)
same,GI50,[45],> 100 µM (inactive)
same,GI50,[46],> 100 µM (inactive)
same,GI50,[47],> 100 µM (inactive)
same,GI50,[48],> 100 µM (inactive)
same,GI50,[49],> 100 µM (inactive)
same,GI50,[50],> 100 µM (inactive)
same,GI50,[51],> 100 µM (inactive)
same,GI50,[52],> 100 µM (inactive)
same,GI50,[53],> 100 µM (inactive)
same,GI50,[54],> 100 µM (inactive)
same,GI50,[55],> 100 µM (inactive)
same,GI50,[56],> 100 µM (inactive)
same,GI50,[57],> 100 µM (inactive)
COc1ccc(/N=C2\C(=N/c3ccc(OC)cc3)N(S(=O)(=O)c3ccccc3)C(=S)N2c2ccc(OC)cc2)cc1,GI50,[1],> 100 µM
same,GI50,[2],46.2 µM (inactive)
same,GI50,[3],> 100 µM (inactive)
same,GI50,[4],> 100 µM (inactive)
same,GI50,[5],> 100 µM (inactive)
same,GI50,[58],> 100 µM (inactive)
same,GI50,[6],> 100 µM (inactive)
same,GI50,[8],> 100 µM (inactive)
same,GI50,[9],> 100 µM (inactive)
same,GI50,[10],> 100 µM (inactive)
same,GI50,[11],> 100 µM (inactive)
same,GI50,[13],> 100 µM (inactive)
same,GI50,[14],> 100 µM (inactive)
same,GI50,[17],> 100 µM (inactive)
same,GI50,[18],> 100 µM (inactive)
same,GI50,[19],> 100 µM (inactive)
same,GI50,[22],25.1 µM (inactive)
same,GI50,[23],> 100 µM (inactive)
same,GI50,[24],> 100 µM (inactive)
same,GI50,[25],> 100 µM (inactive)
same,GI50,[26],> 100 µM (inactive)
same,GI50,[27],> 100 µM (inactive)
same,GI50,[28],> 100 µM (inactive)
same,GI50,[30],> 100 µM (inactive)
same,GI50,[31],> 100 µM (inactive)
same,GI50,[32],> 100 µM (inactive)
same,GI50,[33],> 100 µM (inactive)
same,GI50,[34],> 100 µM (inactive)
same,GI50,[35],> 100 µM (inactive)
same,GI50,[36],> 100 µM (inactive)
same,GI50,[38],> 100 µM (inactive)
same,GI50,[39],> 100 µM (inactive)
same,GI50,[40],> 100 µM (inactive)
same,GI50,[41],4.88 µM (inactive)
same,GI50,[42],> 100 µM (inactive)
same,GI50,[43],> 100 µM (inactive)
same,GI50,[44],> 100 µM (inactive)
same,GI50,[45],> 100 µM (inactive)
same,GI50,[46],> 100 µM (inactive)
same,GI50,[47],> 100 µM (inactive)
same,GI50,[48],> 100 µM (inactive)
same,GI50,[49],> 100 µM (inactive)
same,GI50,[50],> 100 µM (inactive)
same,GI50,[51],89.1 µM (inactive)
same,GI50,[52],27.2 µM (inactive)
same,GI50,[53],> 100 µM (inactive)
same,GI50,[54],86.5 µM (inactive)
same,GI50,[55],> 100 µM (inactive)
same,GI50,[56],> 100 µM (inactive)
same,GI50,[57],> 100 µM (inactive)
